Experimental findings from PMC5923120, “Acylhydrazones as Antifungal Agents Targeting the Synthesis of Fungal Sphingolipids” (Antimicrobial Agents and Chemotherapy, 2018) are described below.

Converted amounts (≈) assume the structure as drawn. Like-named read-outs stand apart in the source and are kept apart here.

The subject of data set [1] is Cryptococcus neoformans H99. Put plainly: Synergistic assay (FIC), CN. Type of data set: cell-based. As for the experimental part: (§1) Synergistic activity was assayed by calculating the fractional inhibitory index (FIC). Briefly, in a 96-well plate, drug A (D13) was serially diluted from 16 to 0.015 μg/ml (11 dilutions), whereas drug B (either fluconazole, amphotericin B, caspofungin, itraconazole, or voriconazole) was serially diluted from 12 to 0.19 μg/ml for fluconazole, 5 to 0.078 μg/ml for amphotericin B, or 8 to 0.007 μg/ml for caspofungin, itraconazole, or voriconazole (seven dilutions). The FIC was defined as (MIC combined/MIC drug A alone) + (MIC combined/MIC drug B alone). Synergism was categorized with the following scale: strongly synergistic effect, FIC of <0.5; synergistic effect, FIC of <1; additive effect, FIC of 1; no effect, FIC between 1 and 2; antagonistic effect, FIC of >2.

Data set [2] is described as follows: in vitro. The conditions noted are these: monkey.
Source text: A commercially available kit was used to examine permeability through the blood-brain barrier (BBB kit MBT-24; Pharmaco Cell Co. Ltd.). This kit allows us to perform a permeability assay using an in vitro reproduction of the blood-brain barrier using monkey brain. Briefly, in a 12-well plate there is a triple culture, with endothelial cells in the luminal part and perycites and astrocytes in the abluminal side connected by tight junctions. The luminal side of the well represents the blood side, whereas the abluminal side represents the brain side. The integrity of the blood-brain barrier is assessed by the measurement of TEER, which indicates the formation of tight junctions. To have an efficient system, the TEER should be >150 Ω cm^2. The kit is kept frozen at −80°C until it is ready to use. […] After that it takes 3 days for the cells to adjust, and then the plate can be used in 4 days for the experiment. For drug testing, after assessing the TEER, the drugs were added in the chosen medium at the desired concentrations and at different time points. At the end of each time point the TEER was measured to assess if the BBB was still intact. After that the medium was collected and subjected to MS to measure the concentration of the samples in the brain side and calculate the permeability value (Papp).
The subject of the next data set is Candida krusei. Put plainly: Synergistic assay (FIC), CK Flu R1. Type of data set: cell-based. The conditions noted are these: Pichia kudriavzevii. Here is the method:
as §1

A further data set has as its system Candida albicans A39. In words: Synergistic assay (FIC), CA. The format is cell-based. Here is the method:
as §1

The next data set has as its system Candida albicans 3022. Put plainly: Synergistic assay (FIC), CA Flu-R. The format is cell-based. The conditions noted are these: Candida albicans, 3022; CA Flu-R. Here is the method:
as §1

The subject of another data set is Candida krusei ATCC 6258. In words: Synergistic assay (FIC), CK Flu R2. Type of data set: cell-based. The conditions noted are these: Pichia kudriavzevii, ATCC6258. As for the experimental part:
as §1

The test system of data set [3] is C. neoformans. In words: In vitro susceptibility testing (MIC80). Type of data set: cell-based, Cryptococcus neoformans. As for the experimental part:
MICs were determined by following the methods of the Clinical and Laboratory Standards Institute (CLSI), with modifications. […] The compounds were serially diluted from 32 to 0.03 μg/ml in a 96-well plate. The inoculum was prepared as described in CLSI protocol M27A3 guidelines ([39]). […] The MICs were determined as the lowest concentration of the compound that inhibited 80% of growth compared to the control.

A further data set has as its system A549. Put plainly: In vitro toxicity (MTT), A549. Type of data set: cell-based. The conditions noted are these: Homo sapiens, cytotoxicity. As for the experimental part:
(§2) The murine macrophage cell line J774 and human cancer cell lines A549 and HepG2 were maintained in DMEM containing 10% fetal bovine serum (FBS) and 1% penicillin-streptomycin. At passage 7, 10^5 cells/well in DMEM containing 10% FBS were transferred into 96-well plates and cultured for 14 h for the cells to adhere to the wells. The compounds were added to the cells at concentrations ranging from 0.03 to 128 μg/ml. The wells without the compound served as controls. […] After 24 or 48 h, the supernatant was removed and 50 μl of 5-mg/ml 3-(4,5-dimethylthiazol-2-yl)-2,5-diphenyltetrazoliumbromide (MTT) solution in phosphate-buffered saline (PBS) was added to each well. The plates were incubated for an additional 4 h. The formazan crystal formed inside the cell was dissolved by adding 50 μl of dimethyl sulfoxide (DMSO). The optical density was measured at 570 nm.

The test system of data set [4] is C. neoformans. In words: In vitro killing assay. The conditions noted are these: for K100*: minimum concentration that kills 100% of C. neoformans cells in 48 h.
Procedure: C. neoformans cells from a culture grown overnight were washed in PBS and resuspended in YNB buffered with HEPES at pH 7.4. The cells were counted, and 2 × 10^4 cells were incubated with different concentrations of the drugs in a final volume of 10 ml with a final concentration of 0.5% DMSO. The tubes were then incubated at 37°C with 5% CO2 on a rotary shaker at 200 rpm. Aliquots were taken at the time points indicated and diluted, and 100-µl portions were plated onto YPD plates.
The next data set deals with J774. Put plainly: In vitro toxicity (MTT), J774. The format is cell-based, murine. The conditions noted are these: Mus musculus, cytotoxicity. Here is the method:
as §2

Another data set has as its system HepG2. In words: In vitro toxicity (MTT), HepG2. The conditions noted are these: Homo sapiens, cytotoxicity. The format is cell-based. Here is the method: as §2
A short description of a further data set: Caco-2 permeability. The conditions noted are these: human.
The subject of data set [5] is Aspergillus fumigatus 293. Put plainly: Synergistic assay (FIC), AF. Type of data set: cell-based. As for the experimental part: as §1
A short description of data set [6]: in vitro. The conditions noted are these: human.
Procedure: (§3) The Caco-2 permeability studies were performed as follows. (i) For the preparation of Caco cells, 50-μl and 25-ml volumes of cell culture medium were added to each well of the Transwell insert and reservoir, respectively. The HTS Transwell plates then were incubated at 37°C, 5% CO2 for 1 h before cell seeding. […] (ii) For the preparation of stock solutions, 10 mM stock solutions of test compounds were prepared in DMSO. The stock solutions of positive controls were prepared in DMSO at a concentration of 10 mM. Digoxin and propranolol were used as control compounds in this assay. (iii) For the assessment of cell monolayer integrity, medium was removed from the reservoir and each Transwell insert and replaced with prewarmed fresh culture medium. Transepithelial electrical resistance (TEER) across the monolayer was measured using a Millicell epithelial volt-Ohm measuring system (Millipore, USA). The plate was returned to the incubator once the measurement was done. The TEER value was calculated according to the following equation: TEER measurement (ohms) × area of membrane (cm^2) = TEER value (ohm · cm^2). The TEER value should be greater than 230 Ω · cm^2, which indicates a well-qualified Caco-2 monolayer. (iv) The assay was performed as follows. The Caco-2 plate was removed from the incubator and washed twice with prewarmed Hanks' balanced salt solution (HBSS; with 10 mM HEPES, pH 7.4) and then incubated at 37°C for 30 min. The stock solutions of control compounds were diluted in DMSO to get 1 mM solutions and then diluted with HBSS (10 mM HEPES, pH 7.4) to get 5 μM working solutions. The stock solutions of the test compounds were diluted in DMSO to get 1 mM solutions and then diluted with HBSS (10 mM HEPES, pH 7.4) to get 5 μM working solutions. The final concentration of DMSO in the incubation system was 0.5%. To determine the rate of drug transport in the apical to basolateral direction, 75 μl of 5 μM working solution of test compound was added to the Transwell insert (apical compartment), and the wells in the receiver plate (basolateral compartment) were filled with 235 μl of HBSS (10 mM HEPES, pH 7.4). To determine the rate of drug transport in the basolateral to apical direction, 235 μl of 5 μM working solution of test compound was added to the receiver plate wells (basolateral compartment), and then the Transwell inserts (apical compartment) were filled with 75 μl of HBSS (10 mM HEPES, pH 7.4). Time zero samples were prepared by transferring 50 μl of 5 μM working solution to wells of the 96-deep-well plate, followed by the addition of 200 μl cold acetonitrile or methanol containing appropriate IS. The plates were incubated at 37°C for 2 h. At the end of the incubation, 50-μl samples from donor sides (apical compartment for AP→BL flux and basolateral compartment for BL→AP) and receiver sides (basolateral compartment for AP→BL flux and apical compartment for BL→AP) were transferred to wells of a new 96-well plate, followed by the addition of 4 volumes of cold acetonitrile or methanol containing appropriate IS. […] An aliquot of 100 μl of the supernatant was mixed with an appropriate volume of ultrapure water before LC-MS/MS analysis. To determine the Lucifer yellow leakage after a 2-h transport period, a stock solution of Lucifer yellow was prepared in ultrapure water and diluted with HBSS (10 mM HEPES, pH 7.4) to reach a final concentration of 100 μM. One hundred microliters of the Lucifer yellow solution was added to each Transwell insert (apical compartment), followed by filling the wells in the receiver plate (basolateral compartment) with 300 μl of HBSS (10 mM HEPES, pH 7.4). The plates were incubated at 37°C for 30 min, and 80-μl samples were removed directly from the apical and basolateral wells (using the basolateral access holes) and transferred to wells of new 96-well plates.
A further data set concerns C. albicans. Put plainly: Mouse model of invasive candidiasis. Type of data set: in vivo, mice. The conditions noted are these: oral gavage 20 mg/kg/day.
Data set [7] deals with C. neoformans. Put plainly: Mouse model of cryptococcosis. The format is in vivo, mice.
The test system of the next data set is Aspergillus fumigatus. Put plainly: Mouse model of invasive pulmonary aspergillosis. Type of data set: in vivo, mice. The conditions noted are these: oral 20 mg/kg/day. As for the experimental part: For survival study, 8-week-old CBA/J (Envigo) male mice were used. They were divided into sets of 10 mice for each treatment or control group. The day prior to infection, the mice were immunosuppressed by using triamcinolone acetonide (1 mg/mouse) subcutaneously ([40]). On day 0, mice were infected intranasally with 20 μl of a suspension containing 2 × 10^4 conidia of A. fumigatus strain Af293 and were treated through gavage with 20 mg/kg/day of BHBM, D13, or voriconazole (as a drug control) in a final volume of 100 μl of 30% PEG in saline buffer. The untreated control group mice received 100 μl of 30% PEG in saline buffer. Mice were fed ad libitum and were given 50% grapefruit juice in place of normal drinking water to avoid the liver metabolism of the drugs ([41]). Mice were monitored every day for discomfort and sacrificed subsequently.

The mark [8] stands for this setting: Cryptococcus neoformans, ChemBridge compounds, Supplementary Table 1, read-out: MIC80.
Where [9] appears, read: lowest concentration inhibiting 80% of growth.

Procedure for Caco-2 permeability: as §3

For the compound `C[C@@H]1[C@H](O)[C@@H](C)/C=C/C=C/C=C/C=C/C=C/C=C/C=C/[C@H](O[C@@H]2O[C@H](C)[C@@H](O)[C@H](N)[C@@H]2O)C[C@@H]2O[C@](O)(C[C@@H](O)C[C@@H](O)[C@H](O)CC[C@@H](O)C[C@@H](O)CC(=O)O[C@H]1C)C[C@H](O)[C@H]2C(=O)O` [AB, amphotericin B], the MIC in [1] came out at 0.25 µg/mL.

In the case of `Cn1c(=O)c2c(ncn2C)n(C)c1=O` [Caffeine, reference compound], in the data set “in vitro [2]”, the Papp at 5 min was 20 ×10⁻⁶ cm/s, the Papp at 15 min was determined as 25 ×10⁻⁶ cm/s and the Papp at 30 min turned out to be 25 ×10⁻⁶ cm/s.

On to `CC[C@H](C)C[C@H](C)CCCCCCCCC(=O)N[C@H]1C[C@@H](O)[C@@H](NCCN)NC(=O)[C@@H]2[C@@H](O)CCN2C(=O)[C@H]([C@H](O)CCN)NC(=O)[C@H]([C@H](O)[C@@H](O)c2ccc(O)cc2)NC(=O)[C@@H]2C[C@@H](O)CN2C(=O)[C@H]([C@@H](C)O)NC1=O` [Caspo, capsofungin], for which the minimum inhibitory concentration (MIC) was found to be 1 µg/mL in the data set on Candida krusei, 0.12 µg/mL in the data set with Candida albicans A39, 0.06 µg/mL in the data set with Candida albicans 3022 and 1 µg/mL in the data set on Candida krusei ATCC 6258.

With `O=C(N/N=C/c1cc(Br)ccc1O)c1cccc(Br)c1` [D2], the MIC80 in the data set with C. neoformans [3] (setting [8]) and against C. neoformans [3] (setting [9]) was 0.25 µg/mL (≈ 0.628 µM) in each case. The IC50 with A549, in the data set on J774 and with HepG2 was 16 µg/mL (≈ 40.2 µM) each time. The “K100*” value with C. neoformans [4] turned out to be 0.12 µg/mL.

For the compound `O=C(N/N=C/c1cc(Br)ccc1O)c1cc(Br)cc(Br)c1O` [D17], the MIC80 with C. neoformans [3] (setting [8]) and with C. neoformans [3] (setting [9]) was 0.5 µg/mL (≈ 1.01 µM) each time. Besides, the IC50 in the data set with A549, in the data set on J774 and in the data set on HepG2 was 16 µg/mL (≈ 32.5 µM) throughout. The “K100*” value with C. neoformans [4] worked out at 0.5 µg/mL. For the same compound, in the data set on C. neoformans [4] (time-kill assay), the “time to kill C. neoformans” value is listed as 6 h.

Regarding `C[C@H]1O[C@@H](O[C@H]2[C@@H](O)C[C@H](O[C@H]3[C@@H](O)C[C@H](O[C@H]4CC[C@@]5(C)[C@H](CC[C@@H]6[C@@H]5C[C@@H](O)[C@]5(C)[C@@H](C7=CC(=O)OC7)CC[C@]65O)C4)O[C@@H]3C)O[C@@H]2C)C[C@H](O)[C@@H]1O` [Digoxin, reference compound], in the data set “Caco-2 permeability” (Caco-2, pH 7.4), the Papp A→B at 2 h, 5 μM was 0.61 ×10⁻⁶ cm/s and the Papp B→A at 2 h, 5 μM worked out at 20.2 ×10⁻⁶ cm/s. In addition, the efflux ratio at 2 h, 5 μM in the data set “Caco-2 permeability” (Caco-2, pH 7.4, Efflux ratio) turned out to be 33.2. In addition, the recovery at 2 h, 5 μM in the data set “Caco-2 permeability” (Caco-2, pH 7.4, Recovery AP→BL) was found to be 82.7%. Further, the recovery at 2 h, 5 μM in “Caco-2 permeability” (Caco-2, pH 7.4, Recovery BL→AP) was 95.6%.

With `CCC(C)n1ncn(-c2ccc(N3CCN(c4ccc(OCC5COC(Cn6cncn6)(c6ccc(Cl)cc6Cl)O5)cc4)CC3)cc2)c1=O` (stereo not shown) [Itra, itraconazole], the MIC is 1 µg/mL in the data set on Candida krusei; 0.06 µg/mL in the data set with Candida albicans A39; 2 µg/mL with Candida albicans 3022; 1 µg/mL in the data set with Candida krusei ATCC 6258; 0.25 µg/mL in [5]; 0.06 µg/mL in [1].

For the compound `CC(C)NCC(O)COc1cccc2ccccc12` (stereo not shown) [Propranolol], in the data set “in vitro [6]” (Caco-2, pH 7.4), the Papp A→B at 2 h, 5 μM was found to be 34.4 ×10⁻⁶ cm/s; the Papp B→A at 2 h, 5 μM was 19.5 ×10⁻⁶ cm/s; the efflux ratio at 2 h, 5 μM worked out at 0.57. In addition, in the data set “in vitro [6]” (Caco-2, pH 7.4, Recovery AP→BL), the recovery at 2 h, 5 μM was 90.7%. In addition, the recovery at 2 h, 5 μM in “in vitro [6]” (Caco-2, pH 7.4, Recovery BL→AP) came to 95.5%.

Regarding `OC(Cn1cncn1)(Cn1cncn1)c1ccc(F)cc1F` [fluconazole], the MIC with Candida krusei was 16 µg/mL; in the data set with Candida albicans A39, 2.5 µg/mL; in the data set with Candida albicans 3022, over 16 µg/mL; with Candida krusei ATCC 6258, over 16 µg/mL; in data set [5] it was over 10 µg/mL; in data set [1], 2.5 µg/mL. For the same compound, the “time within which mice died” value with C. albicans was at most 12 days. In addition, the mice that survived in the data set on C. neoformans [7] (i.p. 1.2 mg/kg/day, treatment immediately after intranasal infection, 40 days) is recorded as 60%. The “mice that survived until the end of the experiment” value in the data set on C. neoformans [7] (i.p. 1.2 mg/kg/day, treatment started 5 days after infection) turned out to be 20%; with C. neoformans [7] (oral 20 mg/kg/day starting the day of infection), 20%. Moreover, the “CFU in brains and lungs” value in the data set on C. neoformans [7] (oral 20 mg/kg/day, 32 days posttreatment, data not shown) was “numerous colonies in the lungs and brain”.

For `C[C@@H](c1ncncc1F)[C@](O)(Cn1cncn1)c1ccc(F)cc1F` [voriconazole, reference compound], the MIC in [5] stood at 1 µg/mL; in data set [1], 4 µg/mL. The “lung fungal burden (CFU) of surviving mice” value in the data set with Aspergillus fumigatus (at the endpoint, data not shown) is “showed evidence of colonies”. The same compound yielded a mice that survived with Aspergillus fumigatus (immunosuppressed mice, after 15 days) of 40%.
